{
  "source": "patent US9597407B2",
  "about": "“Targeted antimicrobial moieties” (C3 Jian, Inc., priority 2009, dated 2017)",
  "key": {"S. mutans [1]": {"system": "S. mutans", "test": "STAMP activity in formulations (buffer/salt dependence)", "assay_type": "cell-based, Streptococcus mutans", "source_text": "During the course of evaluating STAMPs, antimicrobial peptides (AMPs), and binding peptides for desired activity, it was discovered that certain formulations can attenuate or promote peptide activity, as compared to activity levels in a default buffer system (1×PBS). In some cases, 1×PBS may provide the best level of activity. Below are a number of formulations that alter, or may alter, peptide or STAMP activity. For complex buffer systems, assume the base solvent is water unless otherwise stated.\nIt was a surprising discovery that certain anti-S. mutans STAMPs required a salt in the formulation (e.g., PBS) for optimum activity. […] Suitable PBS formulations ranged from 0.5×PBS to about 2.5×PBS with an activity optimum at about 1×PBS. Similar results are believed to obtain for other anti-S. mutans STAMPS as well as a number of other STAMPs. In certain embodiments STAMP stability in solution was improved by inclusion of fluoride in mouthrinse."}, "E. coli [2]": {"system": "E. coli", "test": "Microbial population shift assay, mixed planktonic culture", "assay_type": "cell-based, Escherichia coli", "details": "10 μM peptide, 24 h, detection limit 200 cfu/mL", "method": "(§1) Peptide (10 μM) or mock-treatment (1×PBS) was then added and samples were incubated at 37° C. for 24 h under anaerobic conditions (80% N2, 15% CO2, 5% H2). […] Plates were then incubated 37° C. under aerobic conditions (TH plates were incubated anaerobically) and colonies counted after 24 h to determine survivors. […] Gram stains and direct microscopic observation (from select isolated colonies) were undertaken to confirm species identity (data not shown). The detection limit of the assay was 200 cfu/mL.\n(§2) We hypothesized that potential MH-STAMP dual-functionality could affect a particular set of bacteria within a mixed population, thereby promoting the outgrowth of non-targeted organisms and “shifting” the constituent makeup. To examine this possibility, defined mixed populations of planktonic cells were treated continuously and the make-up of the community examined after 24 h."}, "S. epidermidis [3]": {"system": "S. epidermidis", "test": "Microbial population shift assay, mixed planktonic culture", "assay_type": "cell-based, Staphylococcus epidermidis", "details": "10 μM peptide, 24 h, detection limit 200 cfu/mL", "method": "as §1, §2"}, "S. mutans [4]": {"system": "S. mutans", "test": "Microbial population shift assay, mixed planktonic culture", "assay_type": "cell-based, Streptococcus mutans", "details": "10 μM peptide, 24 h, detection limit 200 cfu/mL", "method": "as §1, §2"}, "P. aeruginosa [5]": {"system": "P. aeruginosa", "test": "Microbial population shift assay, mixed planktonic culture", "assay_type": "cell-based, Pseudomonas aeruginosa", "details": "10 μM peptide, 24 h, detection limit 200 cfu/mL", "method": "as §1, §2"}, "S. mutans [6]": {"system": "S. mutans", "test": "Post-antibiotic effect assay, monoculture growth after 10 min treatment", "assay_type": "cell-based, Streptococcus mutans", "details": "peptide 10 min, then fresh medium", "method": "(§3) The activity and selectivity of MH-STAMPs after a 10 min incubation was determined by growth retardation experiments against targeted and untargeted bacteria in monocultures, as described previously (Id.). Cells from overnight cultures were diluted to ˜5×10^6 cfu/mL in MH (or TH with 1% sucrose for S. mutans), normalized by OD600 0.05-0.1 and seeded to 96-well plates. Cultures were then grown under the appropriate conditions for 2 h (3 h for S. mutans) prior to the addition of peptides for 10 min. Plates were then centrifuged at 3000×g for 5 min, the supernatants discarded, fresh medium returned (MH or TH without sucrose for S. mutans), and incubation resumed. Bacterial growth after treatment was then monitored over time by OD600.\n(§4) MH-STAMP antimicrobial kinetics was ascertained utilizing a variation of the classical post-antibiotic effect assay, which measures the ability of an agent to affect an organism's growth after a short exposure period. Monocultures of MH-STAMP-targeted and untargeted organisms were exposed to M8(KH)-20, M8(BL)-20, BL(KH)-20, or unmodified BD2.20, then allowed to recover. […] Furthermore, replacement of the targeting region with a non-binding peptide abolishes specific activity."}, "S. aureus": {"system": "S. aureus", "test": "Post-antibiotic effect assay, monoculture growth after 10 min treatment", "assay_type": "cell-based, Staphylococcus aureus", "details": "peptide 10 min, then fresh medium", "method": "as §3, §4"}, "E. coli [7]": {"system": "E. coli", "test": "Post-antibiotic effect assay, monoculture growth after 10 min treatment", "assay_type": "cell-based, Escherichia coli", "details": "peptide 10 min, then fresh medium", "method": "as §3, §4"}, "S. epidermidis [8]": {"system": "S. epidermidis", "test": "Post-antibiotic effect assay, monoculture growth after 10 min treatment", "assay_type": "cell-based, Staphylococcus epidermidis", "details": "peptide 10 min, then fresh medium", "method": "as §3, §4"}, "P. aeruginosa [9]": {"system": "P. aeruginosa", "test": "Post-antibiotic effect assay, monoculture growth after 10 min treatment", "assay_type": "cell-based, Pseudomonas aeruginosa", "details": "peptide 10 min, then fresh medium", "method": "as §3, §4"}, "microorganisms [10]": {"system": "microorganisms", "test": "Peptide activities: binding, antimicrobial, growth or phenotype altering (Table 8)", "source_text": "In certain embodiments, peptides described herein can have multiple activities. Thus for example, a peptide can have both binding/targeting activity and antimicrobial activity. Such peptides can be used, e.g., in a chimeric construct, for any or all of these properties. Thus, for example, a peptide designated “B” in Table 8 can be used as a targeting peptide. If it is also designated G or M it can also be used for antimicrobial activity."}, "bacteria": {"system": "bacteria", "test": "Binding of targeting peptides to microorganisms (Table 3)", "details": "peptide binding in aqueous buffers that varied depending on peptide solubility; preferably 1x PBS"}, "microorganisms [11]": {"system": "microorganisms", "test": "Morphology, biofilm and growth disruption by peptides (Table 5)", "assay_type": "cell-based", "set-up": "key: A: Peptide aggregates; B: Less hyphal formation; Clumps; Diffuse clumps and small polyps; F: Diffuse growth; H: Thin; I: Growth inhibition; Microcolony formation; Rippled; Small polyps; Thick; W: Halo formation on top, microlonies on bottom", "source_text": "In certain embodiments peptides that induce alterations in phenotype or other biological activities can also be used as antimicrobial effector moieties."}},
  "note": "Bridge positions count the residues as written; N and C are the ends. Square brackets hold non-standard residues; d marks the D form. Ends that are not written are not given here. Peptide text beside a SMILES is read from it. I, II: the chains in the order shown. Aoc = NCCCCCCCC(=O)O",
  "data": [
    {"molecule": "TFFRLFNRSFTQALGKGGGKNLRIIRKGIHIIKKY* (TFFRLFNRSFTQALGKGGGKNLRIIRKGIHIIKKY-NH2) [Peptide C16G2, anti-S. mutans STAMP]", "values": [
      {"measurement": "activity optimum (PBS strength)", "setting": "S. mutans [1]; PBS formulations 0.5×PBS to about 2.5×PBS", "value": "about 1 ×PBS"},
      {"measurement": "activity", "setting": "S. mutans [1]; water-based salt-free buffers and nanoemulsions", "value": "substantially inactive"}
    ]},
    {"molecule": "CC[C@H](C)[C@H](NC(=O)[C@H](Cc1ccccc1)NC(=O)CCCCCCCNC(=O)[C@H](CCCCNC(=O)CNC(=O)CNC(=O)CNC(=O)[C@H](Cc1c[nH]cn1)NC(=O)[C@H](CCCCN)NC(=O)[C@H](CCCNC(=N)N)NC(=O)[C@H](Cc1c[nH]cn1)NC(=O)[C@H](CCCCN)NC(=O)[C@H](CCCNC(=N)N)NC(=O)[C@H](Cc1c[nH]cn1)NC(=O)[C@H](CCCCN)NC(=O)[C@H](CCCNC(=N)N)NC(=O)[C@H](Cc1c[nH]cn1)NC(=O)[C@H](CCCCN)NC(=O)[C@@H](N)CCCCN)NC(=O)CNC(=O)CNC(=O)CNC(=O)[C@H](C)NC(=O)[C@H](CCC(=O)O)NC(=O)[C@H](CC(N)=O)NC(=O)[C@H](C)NC(=O)[C@H](C)NC(=O)[C@H](CC(=O)O)NC(C)=O)C(=O)N[C@@H](CCCNC(=N)N)C(=O)N[C@@H](CCCCN)C(=O)N[C@@H](Cc1ccccc1)C(=O)N[C@@H](CC(C)C)C(=O)N[C@@H](CCCCN)C(=O)N[C@@H](CCCCN)C(=O)N[C@@H](Cc1c[nH]c2ccccc12)C(=O)N[C@@H](CC(C)C)C(=O)N[C@@H](CC(C)C)C(N)=O", "note": "[BL(KH)-20] (I: Ac-DAANEAGGGK[Aoc]FIRKFLKKWLL-NH2 / II: H-KKHRKHRKHRKHGGG; amide I:10-II:C)", "values": [
      {"measurement": "surviving E. coli cfu/mL", "setting": "E. coli [2]", "value": "unchanged numbers"},
      {"measurement": "surviving S. epidermidis cfu/mL", "setting": "S. epidermidis [3]", "value": "unchanged numbers"},
      {"measurement": "surviving S. mutans cfu/mL", "setting": "S. mutans [4]", "value": "higher than input cfu/mL"},
      {"measurement": "surviving P. aeruginosa cfu/mL", "setting": "P. aeruginosa [5]", "value": "not observed"},
      {"measurement": "S. mutans growth (OD600) after treatment", "setting": "S. mutans [6]", "value": "not altered"}
    ]},
    {"molecule": "CC[C@H](C)[C@H](NC(=O)[C@@H](N)Cc1ccccc1)C(=O)N[C@@H](CCCNC(=N)N)C(=O)N[C@@H](CCCCN)C(=O)N[C@@H](Cc1ccccc1)C(=O)N[C@@H](CC(C)C)C(=O)N[C@@H](CCCCN)C(=O)N[C@@H](CCCCN)C(=O)N[C@@H](Cc1c[nH]c2ccccc12)C(=O)N[C@@H](CC(C)C)C(=O)N[C@@H](CC(C)C)C(N)=O", "note": "[BD2.20] (H-FIRKFLKKWLL-NH2; N-terminus assumed)", "values": [
      {"measurement": "surviving E. coli cfu/mL", "setting": "E. coli [2]", "value": "significant loss of recoverable cfu/mL"},
      {"measurement": "S. aureus growth (OD600) after treatment", "setting": "S. aureus", "value": "inhibited"},
      {"measurement": "surviving S. epidermidis cfu/mL", "setting": "S. epidermidis [3]", "value": "significant loss of recoverable cfu/mL"},
      {"measurement": "E. coli growth (OD600) after treatment", "setting": "E. coli [7]", "value": "inhibited"},
      {"measurement": "S. epidermidis growth (OD600) after treatment", "setting": "S. epidermidis [8]", "value": "inhibited"},
      {"measurement": "surviving S. mutans cfu/mL", "setting": "S. mutans [4]", "value": "significant loss of recoverable cfu/mL"},
      {"measurement": "surviving P. aeruginosa cfu/mL", "setting": "P. aeruginosa [5]", "value": "significant loss of recoverable cfu/mL"},
      {"measurement": "S. mutans growth (OD600) after treatment", "setting": "S. mutans [6]", "value": "robust antimicrobial activity"},
      {"measurement": "P. aeruginosa growth (OD600) after treatment", "setting": "P. aeruginosa [9]", "value": "robust antimicrobial activity"}
    ]},
    {"molecule": "PF-761 (Peptide with targeting and/or antimicrobial activity) chain 1: SKFELVNYASGCSCGADCKCASETECKCASKK chain 2: SKFELVNYASGCSCGADCKCASETECKCASKK", "values": [
      {"measurement": "Activities", "setting": "microorganisms [10]", "value": "G B"},
      {"measurement": "Target(s) (microorganism bound by the targeting peptide)", "setting": "bacteria", "value": "S. epidermidis and M. luteus and P. mirabilis and P. aeruginosa and C. albicans and MRSA and S. pneumoniae and E. faecalis"},
      {"measurement": "Organism, effect (morphology, biofilm and growth disruption)", "setting": "microorganisms [11]; E. coli", "value": "E. coli (C)"},
      {"measurement": "Organism, effect (morphology, biofilm and growth disruption)", "setting": "microorganisms [11]; M. luteus", "value": "M. luteus (C)"},
      {"measurement": "Organism, effect (morphology, biofilm and growth disruption)", "setting": "microorganisms [11]; MRSA", "value": "MRSA (D)"},
      {"measurement": "Organism, effect (morphology, biofilm and growth disruption)", "setting": "microorganisms [11]; P. aeruginosa", "value": "P. aeruginosa (C)"},
      {"measurement": "Organism, effect (morphology, biofilm and growth disruption)", "setting": "microorganisms [11]; S. epidermidis", "value": "S. epidermidis (C)"},
      {"measurement": "Organism, effect (morphology, biofilm and growth disruption)", "setting": "microorganisms [11]; S. mutans", "value": "S. mutans (D)"},
      {"measurement": "Organism, effect (morphology, biofilm and growth disruption)", "setting": "microorganisms [11]; S. pneumoniae", "value": "S. pneumoniae (C)"}
    ]},
    {"molecule": "PF-763 (Peptide with targeting and/or antimicrobial activity) chain 1: GIWMARNYFHRSSIRKVYVESDKEYERVHPMQKIQYEGNYKSQ chain 2: GIWMARNYFHRSSIRKVYVESDKEYERVHPMQKIQYEGNYKSQ", "values": [
      {"measurement": "Activities", "setting": "microorganisms [10]", "value": "G B"},
      {"measurement": "Target(s) (microorganism bound by the targeting peptide)", "setting": "bacteria", "value": "S. epidermidis and M. luteus and E. coli and C. albicans and MRSA and S. pneumoniae and E. faecalis"},
      {"measurement": "Organism, effect (morphology, biofilm and growth disruption)", "setting": "microorganisms [11]; M. luteus", "value": "M. luteus (C)"},
      {"measurement": "Organism, effect (morphology, biofilm and growth disruption)", "setting": "microorganisms [11]; MRSA", "value": "MRSA (D)"},
      {"measurement": "Organism, effect (morphology, biofilm and growth disruption)", "setting": "microorganisms [11]; S. epidermidis", "value": "S. epidermidis (M)"},
      {"measurement": "Organism, effect (morphology, biofilm and growth disruption)", "setting": "microorganisms [11]; S. pneumoniae", "value": "S. pneumoniae (C)"}
    ]}
  ]
}
